Values after ≈ are worked out from the molar mass of the structure shown. Structures can show the parent of a compound that is named as a salt. Where two headings read alike, the source gives them in different places.
How the values were obtained:
[1] = system: M. peregrinum ATCC 700686; assay: MIC, broth microdilution; format: cell-based; conditions: for MIC: Mycolicibacterium peregrinum, ATCC700686, read-out: In Vitro Activity (MIC)
Protocol: (§1) Minimum inhibitory concentration (MIC) determinations: MIC values for the putative EBO resistant mutants were determined by broth microdilution method (BMD) in cation-adjusted Mueller Hinton broth according to Clinical and Laboratory Standards Institute document M24-A3 (Clinical and Laboratory Standards Institute. Susceptibility Testing of Mycobacteria, Nocardia spp., and Other Aerobic Actinomycetes. 3rd ed. CLSI standard M24. Clinical and Laboratory Standards Institute, Wayne, PA: 2018). Agar MIC values were determined as essentially described by CLSI M24-A3 using 7H10 Middlebrook agar and 5% OADC.

M. abscessus ATCC 19977 = assay: MIC, broth microdilution; format: cell-based; conditions: for MIC: Mycobacteroides abscessus, ATCC19977, read-out: In Vitro Activity (MIC)
Protocol: as §1

M. chimaera 20-S-05 = assay: MIC, broth microdilution; format: cell-based; conditions: for MIC: 20S05, read-out: In Vitro Activity (MIC)
Protocol: as §1

[2] = system: M. intracellulare DNA000111; assay: MIC, broth microdilution; format: cell-based; conditions: for MIC: Mycobacterium intracellulare, read-out: In Vitro Activity (MIC)
Protocol: as §1

[3] = system: M. intracellulare 20-S-13; assay: MIC, broth microdilution; format: cell-based; conditions: for MIC: Mycobacterium intracellulare
Protocol: as §1

M. avium 2285R = assay: MIC, broth microdilution; format: cell-based; conditions: for MIC: Mycobacterium avium, read-out: In Vitro Activity (MIC)
Protocol: as §1

M. avium ATCC 700858 = assay: MIC, broth microdilution; format: cell-based; conditions: for MIC: Mycobacterium avium, ATCC700858, read-out: In Vitro Activity (MIC)
Protocol: as §1

[4] = system: M. avium ATCC 700898 isolate 64-3A; assay: MIC, EBO selected isolate; format: cell-based
Protocol: as §1
(§2) Resistant colonies were confirmed by replica plating on agar plates containing antibiotic at the same concentration used to select resistance. Control plates containing no drug were prepared for inoculum determination. The RF was calculated by dividing the total CFU/mL of resistant colonies by the total CFU/mL of the inoculum.

[5] = system: M. avium ATCC 700898 isolate 16-3A; assay: MIC, EBO selected isolate; format: cell-based
Protocol: as §1, §2

[6] = system: M. avium ATCC 700898 isolate 16-5A; assay: MIC, EBO selected isolate; format: cell-based
Protocol: as §1, §2

[7] = system: M. avium ATCC 700898 isolate 32-8A; assay: MIC, EBO selected isolate; format: cell-based
Protocol: as §1, §2

[8] = system: M. avium ATCC 700898 isolate 64-4A; assay: MIC, EBO selected isolate; format: cell-based
Protocol: as §1, §2

[9] = system: M. avium ATCC 700898 isolate 32-5A; assay: MIC, EBO selected isolate; format: cell-based
Protocol: as §1, §2

M. avium ATCC 700898 WT = assay: MIC, parent strain; format: cell-based
Protocol: as §1, §2

M. avium ATCC 700898 [10] = conditions: Sensititre SLOMYCO plate; cited from earlier work
M. avium ATCC 700898 [11] = assay: Agar MIC; format: cell-based; conditions: 7H10 Middlebrook agar, 5% OADC; for MIC: Mycobacterium avium, ATCC700898
Protocol: as §1, §2

M. avium ATCC 700898 [12] = format: cell-based
Protocol: as §2

[13] = system: EBO resistant mutants of M. avium ATCC 700898; format: cell-based
Protocol: as §1, §2

[14] = system: NTM strains (5 MAC strains, 2 rapidly growing); assay: Checkerboard synergy testing with EBO, summary over strains; format: cell-based
Protocol: (§3) The checkerboard methodology was used to test for synergy and antagonism using Middlebrook 7H9+5% OADC (Dubos et al. Am Rev Tuberc (1947) 56:334-45) as the microbiology growth media. The first antibiotic of the combination, EBO, was serially diluted along the x-axis, whereas the second antibiotic was diluted along the y- axis. Synergistic or antagonistic activity was determined using the sum of the fractional inhibitory concentration (EFIC) index. The FIC index is calculated as the sum of FIC A+FIC B, where FIC A is the MIC of drug A in the combination of drugs A and B divided by the MIC of drug A alone, plus the MIC of drug B in the combination of drugs A and B divided by the MIC of drug B alone. A combination of drugs is considered synergistic when the FIC is <0.5, additive when the FIC is >0.5 to 1, indifferent when the FIC is >1 to 2, and antagonistic when the FIC is >2 (EUCAST. Clin. Microbiol. Infect. (2000) 6: 503-508).

[15] = system: M. intracellulare 20-S-13; assay: Checkerboard synergy testing with EBO; format: cell-based; conditions: M. intracellulare 20-S-13, clarithromycin resistant
Protocol: Frozen stocks of the drugs were prepared at 5 or 2 mg/ml and frozen in aliquots at −20° C. On the day of the experiment the stocks were thawed and diluted to the appropriate concentration.
Stocks of isolates were prepared and frozen at −80° C. Fresh cultures of each isolate (1-2 weeks) were grown on either 7H10 agar plus 5% OADC or CAMH agar plus 5% OADC for use in each experiment.
as §3

[16] = 20S13, read-out: In Vitro Activity (MIC)
[17] = Mycobacterium avium, ATCC700898
[18] = 20S13, M. intracellulare 20-S-13, read-out: In Vitro Activity (MIC)

SMILES	MIC [1] [µg/mL]	MIC (M. abscessus ATCC 19977) [µg/mL]	MIC (M. chimaera 20-S-05) [µg/mL]	MIC [2] [µg/mL]	MIC [3, 16] [µg/mL]	MIC (M. avium 2285R) [µg/mL]	MIC (M. avium ATCC 700858) [µg/mL]	MIC ([4]; Mycobacterium avium) [µg/mL]	MIC ([5]; Mycobacterium avium) [µg/mL]	MIC ([6]; Mycobacterium avium) [µg/mL]	MIC ([7]; Mycobacterium avium) [µg/mL]	MIC ([8]; Mycobacterium avium) [µg/mL]	MIC ([9]; Mycobacterium avium) [µg/mL]	MIC (M. avium ATCC 700898 WT; [17]) [µg/mL]	MIC (M. avium ATCC 700898 [11]) [µg/mL]	also measured
COc1nc2ccc(Br)cc2cc1[C@@H](c1ccccc1)[C@@](O)(CCN(C)C)c1cccc2ccccc12 [BDQ, Bedaquiline]	0.06 (≈ 0.108 µM)	0.5 (≈ 0.9 µM)	0.06 (≈ 0.108 µM)	0.5 (≈ 0.9 µM)	> 0.5	0.03 (≈ 0.054 µM)	0.06 (≈ 0.108 µM)	0.12 (≈ 0.216 µM)	0.06 (≈ 0.108 µM)	0.06 (≈ 0.108 µM)	0.12 (≈ 0.216 µM)	0.06 (≈ 0.108 µM)	0.03 (≈ 0.054 µM)	0.06 (≈ 0.108 µM)	–	–
CO[C@H]1/C=C/O[C@@]2(C)Oc3c(C)c(O)c4c(O)c(c(/C=N/N5CCN(C)CC5)c(O)c4c3C2=O)NC(=O)/C(C)=C\C=C\[C@H](C)[C@H](O)[C@@H](C)[C@@H](O)[C@@H](C)[C@H](OC(C)=O)[C@@H]1C [rifampin, Rifampin]	–	–	–	–	–	–	–	–	–	–	–	–	–	–	–	MIC variance previously reported for this strain (M. avium ATCC 700898 [10]): 8 fold
NCC[C@H](O)C(=O)N[C@@H]1C[C@H](N)[C@@H](O[C@H]2O[C@H](CN)[C@@H](O)[C@H](O)[C@H]2O)[C@H](O)[C@H]1O[C@H]1O[C@H](CO)[C@@H](O)[C@H](N)[C@H]1O [AMK, Amikacin]	2 (≈ 3.42 µM)	64 (≈ 109 µM)	32 (≈ 54.6 µM)	16 (≈ 27.3 µM)	–	8 (≈ 13.7 µM)	16 (≈ 27.3 µM)	32 (≈ 54.6 µM)	32 (≈ 54.6 µM)	32 (≈ 54.6 µM)	32 (≈ 54.6 µM)	32 (≈ 54.6 µM)	32 (≈ 54.6 µM)	–	32 (≈ 54.6 µM)	MIC [3, 18]: 20 µg/mL (≈ 34.2 µM)
CC[C@H]1OC(=O)[C@H](C)[C@@H](O[C@H]2C[C@@](C)(OC)[C@@H](O)[C@H](C)O2)[C@H](C)[C@@H](O[C@@H]2O[C@H](C)C[C@H](N(C)C)[C@H]2O)[C@](C)(OC)C[C@@H](C)C(=O)[C@H](C)[C@@H](O)[C@]1(C)O [CLR, Clarithromycin]	1 (≈ 1.34 µM)	16 (≈ 21.4 µM)	4 (≈ 5.35 µM)	2 (≈ 2.67 µM)	> 128	0.125 (≈ 0.167 µM)	2 (≈ 2.67 µM)	0.5 (≈ 0.668 µM)	0.5 (≈ 0.668 µM)	–	0.5 (≈ 0.668 µM)	2 (≈ 2.67 µM)	1 (≈ 1.34 µM)	2 (≈ 2.67 µM)	4 (≈ 5.35 µM)	–
NC[C@H]1OB(O)c2c(OCCCO)cccc21 [EBO, Epetraborole hydrochloride]	–	–	–	–	–	–	–	–	–	–	–	–	–	–	–	Agar MIC (M. avium ATCC 700898 [11]): 8 µg/mL; Resistance Frequency (M. avium ATCC 700898 [12]; EBO selection concentration 16 mg/L): 1.58 × 10^−7; Resistance Frequency (M. avium ATCC 700898 [12]; EBO selection concentration 32 mg/L): 1.21 × 10^−8; Resistance Frequency (M. avium ATCC 700898 [12]; EBO selection concentration 64 mg/L): 8.49 × 10^−9; Spontaneous resistance frequency (M. avium ATCC 700898 [12]; selected on 2-8× agar MIC): 1.58×10^−7 to 8.48×10^−9; In Vitro Activity (MIC) [1]: 0.06 µg/mL; In Vitro Activity (MIC) (M. abscessus ATCC 19977): 0.06 µg/mL; In Vitro Activity (MIC) (M. chimaera 20-S-05): 2 µg/mL; In Vitro Activity (MIC) [2]: 0.5 µg/mL; In Vitro Activity (MIC) ([3]; M. intracellulare 20-S-13): 0.25 µg/mL; In Vitro Activity (MIC) (M. avium 2285R): 0.5 µg/mL; In Vitro Activity (MIC) (M. avium ATCC 700858): 2 µg/mL; Change of MIC value in EBO resistant mutants versus wild-type [13]: ≥ 128 fold; MIC ([4]; EBO selected isolate 64-3A): >128 µg/mL; MIC ([5]; EBO selected isolate 16-3A): >128 µg/mL; MIC ([6]; EBO selected isolate 16-5A): 64 µg/mL; MIC ([7]; EBO selected isolate 32-8A): >128 µg/mL; MIC ([8]; EBO selected isolate 64-4A): >128 µg/mL; MIC ([9]; EBO selected isolate 32-5A): >128 µg/mL; MIC (M. avium ATCC 700898 WT; WT parent strain): 0.5 µg/mL
CO[C@H]1/C=C/O[C@@]2(C)Oc3c(C)c(O)c4c(c3C2=O)C2=NC3(CCN(CC(C)C)CC3)NC2=C(NC(=O)/C(C)=C\C=C\[C@H](C)[C@H](O)[C@@H](C)[C@@H](O)[C@@H](C)[C@H](OC(C)=O)[C@@H]1C)C4=O [RFB, Rifabutin]	8 (≈ 9.44 µM)	32 (≈ 37.8 µM)	1 (≈ 1.18 µM)	2 (≈ 2.36 µM)	–	0.125 (≈ 0.148 µM)	0.25 (≈ 0.295 µM)	0.06 (≈ 0.0708 µM)	0.06 (≈ 0.0708 µM)	0.06 (≈ 0.0708 µM)	0.125 (≈ 0.148 µM)	0.25 to 0.5 (≈ 0.295 to 0.59 µM)	0.06 (≈ 0.0708 µM)	0.06 (≈ 0.0708 µM)	0.25 (≈ 0.295 µM)	MIC [3, 18]: 0.06 µg/mL (≈ 0.0708 µM)
CC(C)/N=c1\cc2n(-c3ccc(Cl)cc3)c3ccccc3nc-2cc1Nc1ccc(Cl)cc1 [CFZ, clofazimine]	–	–	–	–	–	–	–	0.5 (≈ 1.06 µM)	0.25 (≈ 0.528 µM)	0.25 (≈ 0.528 µM)	0.25 (≈ 0.528 µM)	0.5 (≈ 1.06 µM)	0.5 (≈ 1.06 µM)	0.5 (≈ 1.06 µM)	–	–
CC[C@@H](CO)NCCN[C@@H](CC)CO [EMB, Ethambutol]	8 (≈ 39.2 µM)	32 (≈ 157 µM)	4 (≈ 19.6 µM)	32 (≈ 157 µM)	64 (≈ 313 µM)	16 (≈ 78.3 µM)	8 (≈ 39.2 µM)	4 (≈ 19.6 µM)	4 (≈ 19.6 µM)	4 (≈ 19.6 µM)	8 (≈ 39.2 µM)	8 (≈ 39.2 µM)	4 (≈ 19.6 µM)	4 (≈ 19.6 µM)	8 (≈ 39.2 µM)	Interaction with EBO over the 5 MAC strains tested, in words [14]: synergy was observed with 2 strains and additivity with an additional 2 strains; Interaction between ethambutol and EBO, in words [15]: indifference
